How the values were obtained:
[1] = test system: Leigh syndrome patient cells (KCMC10); test: Test III: suppression of BSO-induced ferroptosis, Leigh syndrome patient cells; type: cell-based, human; conditions: for cell death ascribable to ferroptosis induced by BSO: 100 μM BSO coadded with test compound, FIG. 32; for EC50: Homo sapiens, read-out: EC50 (50% effective concentration of the suppressive effect on cell death ascribable to ferroptosis induced by BSO); for EC50 / ferroptosis inhibitory effect (judged from EC50 value): Leigh syndrome patient cells (KCMC10), BSO; for ferroptosis inhibitory effect (judged from EC50 value): Table 3
Description: (§1) Apomorphine and idebenone approved as a therapeutic drug for Leber's hereditary optic neuropathy in the Europe were used as control drugs.
(§2) In the drawing, A depicts the results obtained using compounds D8, D9, D10, D18, D20, D26, and D36, and B depicts the results obtained using compounds D37, D38, D39, D40, D41, D42, and D43. In the drawing, the abscissa depicts test compounds, and the ordinate depicts the cell viability (%) of each treated plot when the number of live cells in a control non-supplemented with BSO is defined as 100%.

[2] = test system: MELAS patient cells (ME169); test: Test III: suppression of BSO-induced ferroptosis, MELAS patient cells; type: cell-based, human; conditions: 80 μM BSO coadded with test compound; FIG. 33
Description: as §1, §2

dopamine D2 receptor = dopamine D2 receptor (Homo sapiens (Human), UniProt P14416); test: Test IV: dopamine D2 receptor binding activity (GeneBLAzer D2-Gqo5-NEAT-bla CHO-K1 Cell-based Assay); conditions: for Dopamine D2 receptor binding activity, Activity intensity: CHO-K1 reporter cells, 5 hours
Chain of dopamine D2 receptor (P14416 whole entry): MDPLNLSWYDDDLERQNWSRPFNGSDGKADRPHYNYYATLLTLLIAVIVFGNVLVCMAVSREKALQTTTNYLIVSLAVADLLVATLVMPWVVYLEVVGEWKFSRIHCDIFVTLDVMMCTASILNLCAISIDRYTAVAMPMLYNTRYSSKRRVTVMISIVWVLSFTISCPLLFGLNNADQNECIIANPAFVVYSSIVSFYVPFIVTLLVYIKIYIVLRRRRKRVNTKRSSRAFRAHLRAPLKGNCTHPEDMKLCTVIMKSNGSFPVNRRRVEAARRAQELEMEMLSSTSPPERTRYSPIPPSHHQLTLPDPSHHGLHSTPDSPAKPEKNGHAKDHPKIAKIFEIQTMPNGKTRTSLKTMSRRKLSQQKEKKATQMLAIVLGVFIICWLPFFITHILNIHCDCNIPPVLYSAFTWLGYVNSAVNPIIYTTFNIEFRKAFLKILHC
Method: In this test, the dopamine D2 receptor binding activity of each test compound was measured using GeneBLAzer D2-Gqo5-NEAT-bla CHO-K1 Cell-based Assay (Thermo Fisher Scientific, Inc.). The CHO cells are designed such that a signal transduction pathway is activated by addition of a drug to express a reporter gene (P lactamase). […] Therefore, the binding activity of the test compound can be measured by measuring a blue fluorescence/green fluorescence ratio. The CHO cells were inoculated at 10,000 cells/well to a 384-well plate and cultured for 16 to 20 hours in a CO2 incubator. […] A substrate mix was added to the cells and incubated at room temperature for 2 hours. […] The respective EC50 values of the test compounds were determined from the measured fluorescence ratios using GraphPad Prism 8.

[3] = test system: MELAS patient cells (ME169); test: Test III: suppression of RSL-3-induced ferroptosis, MELAS patient cells; type: cell-based, human; conditions: 100 nM RSL-3 coadded with test compound; FIG. 35
Description: as §1
as §2, with “RSL-3” for “BSO”

[4] = test system: Leigh syndrome patient cells (KCMC10); test: Test III: suppression of RSL-3-induced ferroptosis, Leigh syndrome patient cells; type: cell-based, human; conditions: 100 nM RSL-3 coadded with test compound; FIG. 34
Description: as §1
as §2, with “RSL-3” for “BSO”

SH-SY5Y cells = test: Test VI: inhibition of rotenone-induced neuronal death (LDH assay); type: cell-based, human; set-up: key: ++: the case where a concentration-dependent inhibitory effect on rotenone-induced cell death was able to be confirmed twice; +: In the third test, the case where the concentration-dependent inhibitory effect was able to be confirmed; ±: the case where no concentration-dependent inhibitory effect was able to be confirmed; −: The case where any inhibitory effect on rotenone-induced cell death was able to be confirmed in none of the two tests; conditions: rotenone 1 μM, compound 10 nM-10 μM (Apo 0.1 nM-10 μM), 48 hours
Method: After the completion of culture, rotenone-induced cell death was measured using Cytotoxicity LDH Assay Kit-WST (Dojindo Laboratories). […] The test was conducted twice, and the case where a concentration-dependent inhibitory effect on rotenone-induced cell death was able to be confirmed twice was rated as (++). If the inhibitory effect was confirmed in one of the two tests and no inhibitory effect was confirmed in the other test, the third test was conducted. In the third test, the case where the concentration-dependent inhibitory effect was able to be confirmed was rated as (+), and the case where no concentration-dependent inhibitory effect was able to be confirmed was rated as (±). The case where any inhibitory effect on rotenone-induced cell death was able to be confirmed in none of the two tests was rated as (−).

[5] = test system: human liver cancer cell line (Huh7); test: Test V: suppression of RSL-3-induced cell death in liver cancer cell system (LDH, MTT); type: cell-based; set-up: key to LDH (LDH activity, cell death): relative to control without RSL-3 (= 1); conditions: Huh7, test compound 1 μM (GSK872 5 μM) 1 hour, then RSL-3 0.5 μM 24 hours, relative value, control non-supplemented with RSL-3 = 1; for viability at 1 µM: Homo sapiens, Huh-7, read-out: MTT (cell proliferation and cell viability)
Method: The ferroptosis inducer used was RSL-3.
At the stage where 70% confluency was attained, the medium was replaced with the medium for the test, and DMSO or each test compound (final concentration of GSK872: 5 μM, and final concentration of the other compounds: 1 μM) was added to the cells in each well, which were then cultured for 1 hour. Then, the ferroptosis inducer (final concentration: 0.5 μM) was added to the cells in each well, which were then cultured for 24 hours. After the completion of culture, cell death suppressive activity was measured with lactate dehydrogenase (LDH) activity as an index while cell proliferation and cell viability were measured with activity of reducing yellow tetrazolium salt (MTT) into formazan as an index.
The values in the table are relative values when the LDH activity and MTT value of a control non-supplemented with RSL-3 are each defined as 1.

COc1cccc2c1C[C@@H]1c3c(cc4c(c3-2)OCO4)CCN1C [D9]
cell death ascribable to ferroptosis induced by BSO [1]: markedly suppressed
EC50 [1]: 393 nM
cell death ascribable to ferroptosis induced by BSO [2]: markedly suppressed
dopamine D2 receptor binding activity (in words) (dopamine D2 receptor): no or little
Dopamine D2 receptor binding activity, Activity intensity (dopamine D2 receptor): −
cell death ascribable to ferroptosis induced by RSL-3 [3]: suppressed
cell death ascribable to ferroptosis induced by RSL-3 [4]: suppressed

COc1cc(O)c2c(c1)C[C@@H]1c3c(cc4c(c3-2)OCO4)CCN1C [D10]
cell death ascribable to ferroptosis induced by BSO [1]: markedly suppressed
EC50 [1]: 750 nM
cell death ascribable to ferroptosis induced by BSO [2]: markedly suppressed
dopamine D2 receptor binding activity (in words) (dopamine D2 receptor): no or little
Dopamine D2 receptor binding activity, Activity intensity (dopamine D2 receptor): −
cell death ascribable to ferroptosis induced by RSL-3 [3]: suppressed
cell death ascribable to ferroptosis induced by RSL-3 [4]: suppressed

CN1CCc2cc3c(c4c2[C@H]1Cc1ccccc1-4)OCO3 [D18]
cell death ascribable to ferroptosis induced by BSO [1]: markedly suppressed
EC50 [1]: 492 nM
cell death ascribable to ferroptosis induced by BSO [2]: markedly suppressed
dopamine D2 receptor binding activity (in words) (dopamine D2 receptor): no or little
Dopamine D2 receptor binding activity, Activity intensity (dopamine D2 receptor): −
cell death ascribable to ferroptosis induced by RSL-3 [3]: suppressed
cell death ascribable to ferroptosis induced by RSL-3 [4]: suppressed

COc1cc2c(cc1OC)-c1c3c(c(OC)c4c1C(C2)N(C)CC4)OCO3 (stereo not shown) [D20]
cell death ascribable to ferroptosis induced by BSO [1]: markedly suppressed
EC50 [1]: 798 nM
cell death ascribable to ferroptosis induced by BSO [2]: markedly suppressed
dopamine D2 receptor binding activity (in words) (dopamine D2 receptor): no or little
Dopamine D2 receptor binding activity, Activity intensity (dopamine D2 receptor): −
cell death ascribable to ferroptosis induced by RSL-3 [3]: suppressed
cell death ascribable to ferroptosis induced by RSL-3 [4]: suppressed

CN1CCc2cccc3c2[C@H]1Cc1ccc(OCCCc2ccccc2)c(O)c1-3.Cl [D37]
Inhibitory effect on rotenone-induced cell death (SH-SY5Y cells): ++
EC50 [1]: 186 nM
ferroptosis inhibitory effect (judged from EC50 value) [1]: particularly high
viability at 1 µM [5]: 80%
LDH (LDH activity, cell death) [5]: 0.85
dopamine D2 receptor binding activity (in words) (dopamine D2 receptor): no or little
Dopamine D2 receptor binding activity, Activity intensity (dopamine D2 receptor): −

CN1CCc2cccc3c2[C@H]1Cc1ccc(OCCCO)c(O)c1-3.Cl [D38]
Inhibitory effect on rotenone-induced cell death (SH-SY5Y cells): ++
ferroptosis inhibitory effect (judged from EC50 value) [1]: particularly high
viability at 1 µM [5]: 81%
LDH (LDH activity, cell death) [5]: 1.66
dopamine D2 receptor binding activity (in words) (dopamine D2 receptor): no or little
Dopamine D2 receptor binding activity, Activity intensity (dopamine D2 receptor): ±

CN1CCc2cccc3c2[C@H]1Cc1ccc(OCCCCl)c(O)c1-3.Cl [D39]
Inhibitory effect on rotenone-induced cell death (SH-SY5Y cells): +
EC50 [1]: 259 nM
viability at 1 µM [5]: 80%
LDH (LDH activity, cell death) [5]: 1.15
dopamine D2 receptor binding activity (in words) (dopamine D2 receptor): no or little
Dopamine D2 receptor binding activity, Activity intensity (dopamine D2 receptor): −

CCCOc1ccc2c(c1O)-c1cccc3c1[C@@H](C2)N(C)CC3.Cl [D40]
Inhibitory effect on rotenone-induced cell death (SH-SY5Y cells): +
EC50 [1]: 55 nM
ferroptosis inhibitory effect (judged from EC50 value) [1]: particularly high
viability at 1 µM [5]: 84%
LDH (LDH activity, cell death) [5]: 1.15
dopamine D2 receptor binding activity (in words) (dopamine D2 receptor): no or little
Dopamine D2 receptor binding activity, Activity intensity (dopamine D2 receptor): −

CCCCCCCCCOc1ccc2c(c1O)-c1cccc3c1[C@@H](C2)N(C)CC3.Cl [D41]
EC50 [1]: 648 nM
dopamine D2 receptor binding activity (in words) (dopamine D2 receptor): no or little
Dopamine D2 receptor binding activity, Activity intensity (dopamine D2 receptor): −

CN1CCc2cccc3c2[C@H]1Cc1ccc(OCCCC(F)(F)F)c(O)c1-3.Cl [D42]
Inhibitory effect on rotenone-induced cell death (SH-SY5Y cells): +
EC50 [1]: 167 nM
ferroptosis inhibitory effect (judged from EC50 value) [1]: particularly high
viability at 1 µM [5]: 82%
LDH (LDH activity, cell death) [5]: 1.55
dopamine D2 receptor binding activity (in words) (dopamine D2 receptor): no or little
Dopamine D2 receptor binding activity, Activity intensity (dopamine D2 receptor): −

COc1ccc2c(c1O)-c1c(OC)c(OC)cc3c1[C@@H](C2)N(C)CC3 [D43]
Inhibitory effect on rotenone-induced cell death (SH-SY5Y cells): −
EC50 [1]: 223 nM
viability at 1 µM [5]: 49%
LDH (LDH activity, cell death) [5]: 6.52
dopamine D2 receptor binding activity (in words) (dopamine D2 receptor): no or little
Dopamine D2 receptor binding activity, Activity intensity (dopamine D2 receptor): −

CN1CCc2cccc3c2[C@H]1Cc1ccc(-c2ccccc2)c(O)c1-3 [D45]
Inhibitory effect on rotenone-induced cell death (SH-SY5Y cells): ++
EC50 [1]: 96 nM
ferroptosis inhibitory effect (judged from EC50 value) [1]: particularly high
viability at 1 µM [5]: 77%
LDH (LDH activity, cell death) [5]: 0.43
dopamine D2 receptor binding activity (in words) (dopamine D2 receptor): no or little
Dopamine D2 receptor binding activity, Activity intensity (dopamine D2 receptor): ±

CN1CCc2cccc3c2[C@H]1Cc1ccc(OCc2ccccc2)c(O)c1-3 [D47]
Inhibitory effect on rotenone-induced cell death (SH-SY5Y cells): ++
EC50 [1]: 124 nM
ferroptosis inhibitory effect (judged from EC50 value) [1]: particularly high
viability at 1 µM [5]: 71%
LDH (LDH activity, cell death) [5]: 0.39
dopamine D2 receptor binding activity (in words) (dopamine D2 receptor): no or little
Dopamine D2 receptor binding activity, Activity intensity (dopamine D2 receptor): −

CN1CCc2cccc3c2[C@H]1Cc1ccc(OCCc2ccccc2)c(O)c1-3 [D48]
Inhibitory effect on rotenone-induced cell death (SH-SY5Y cells): ++
EC50 [1]: 128 nM
ferroptosis inhibitory effect (judged from EC50 value) [1]: particularly high
viability at 1 µM [5]: 78%
LDH (LDH activity, cell death) [5]: 0.44
dopamine D2 receptor binding activity (in words) (dopamine D2 receptor): no or little
Dopamine D2 receptor binding activity, Activity intensity (dopamine D2 receptor): −

CN1CCc2cccc3c2[C@H]1Cc1ccc(OCCCCc2ccccc2)c(O)c1-3 [D50]
Inhibitory effect on rotenone-induced cell death (SH-SY5Y cells): ++
EC50 [1]: 207 nM
viability at 1 µM [5]: 60%
LDH (LDH activity, cell death) [5]: 0.43
dopamine D2 receptor binding activity (in words) (dopamine D2 receptor): no or little
Dopamine D2 receptor binding activity, Activity intensity (dopamine D2 receptor): −

CN1CCc2cccc3c2[C@H]1Cc1ccc(OCCC(c2ccccc2)c2ccccc2)c(O)c1-3 [D54]
Inhibitory effect on rotenone-induced cell death (SH-SY5Y cells): −
viability at 1 µM [5]: 68%
LDH (LDH activity, cell death) [5]: 0.43
dopamine D2 receptor binding activity (in words) (dopamine D2 receptor): no or little
Dopamine D2 receptor binding activity, Activity intensity (dopamine D2 receptor): −

CCOc1ccc2c(c1O)-c1cccc3c1[C@@H](C2)N(C)CC3 [D55]
Inhibitory effect on rotenone-induced cell death (SH-SY5Y cells): +
EC50 [1]: 4 nM
ferroptosis inhibitory effect (judged from EC50 value) [1]: particularly high
viability at 1 µM [5]: 78%
LDH (LDH activity, cell death) [5]: 0.44
dopamine D2 receptor binding activity (in words) (dopamine D2 receptor): no or little
Dopamine D2 receptor binding activity, Activity intensity (dopamine D2 receptor): −

Reference: patent US12441734B2, “Ferroptosis inhibitor and use therefor” (JICHI MEDICAL UNIVERSITY, priority 2021, dated 2025)
